Test results: patent US5741798A, “2-benzyl-4-sulfonyl-4H-isoquinolin-1,3-diones and their use as antiinflammatory agents” (priority 1997, dated 1998)

Tests used:
[1] = biological target: Human cyclooxygenase 1 (COX-1) (Homo sapiens, UniProt P23219); experiment: COX-1 inhibition, microsomal assay; conditions: 20 min, read-out: % Inhibition of COX Enzymes in Microsomal Assays, COX-1
Procedure: (§1) Human cyclooxygenase 1 and 2 are expressed in a baculovirus expression system using High 5 insect cells. Microsomal fractions prepared from the cells are stored at -80° C. The assays are performed at room temperature in phosphate buffered saline. After incubating the COX-1 or COX-2 microsomes with hematin (2 μM), phenol (0.5 mM) and reduced glutathione (1 mM) for 5 minutes, inhibitor or DMSO vehicle is added and allowed to incubate for 20 minutes. Arachidonic acid (2 μM) is added and after 20 minutes the reaction is stopped by the addition of HCl (0.1 N HCl final concentration).
(§2) The inhibitory activities against COX-1 and COX-2 of the compounds described in the above Synthetic Examples were determined using the two in vitro assays described above.

[2] = system: Carrageenan-induced paw edema; experiment: Carrageenan-Induced Paw Edema in Rats; type: in vivo, rat; conditions: oral, 30 mg/kg; *p < 0.05
Procedure: The antiinflammatory activities of two compounds in accordance with the invention (those of Examples 1 and 10) were determined in vivo and compared to those of the known antiinflammatory agents indomethacin and meloxicam, using the Carrageenan-Induced Paw Edema in Rats protocol described by C. A Winter et al. J. Pharmacol. Exp. Ther. 1963, 141, 369. Test compounds were administered orally.

[3] = biological target: T1, human recombinant COX-1 (Homo sapiens, UniProt P23219); experiment: COX-1 inhibition, COS cell assay; type: cell-based
T1 construct: expressed in transfected cells; host or cells: Cos-A2 cells, stably transfected
Procedure: (§3) Cos-A2 cells stably transfected with human recombinant COX-1 or COX-2 are cultured in 96 well tissue culture plates with Dulbecco's Modified Eagle Medium supplemented with 10% fetal bovine serum, glutamine (2 mM), penicillin (50 U/mL), streptomycin ([…]) and geneticin (400 μg/mL). Media is removed from confluent monolayers and the cells are washed twice with Hank's buffered saline solution. Fresh HBSS is added, with or without inhibitor, and the cells are incubated for 30 minutes at 37° C. Arachidonic acid (30 μM) is then added and the cells are incubated for an additional one hour at 37° C. Individual experiments represent a mean of triplicate wells for control and inhibitor doses. Supernatents are removed and stored at -80° C. until assayed for PGE2 by EIA (Amersham).
as §2

[4] = biological target: T2, human recombinant COX-2 (Homo sapiens, UniProt P35354); experiment: COX-2 inhibition, COS cell assay; type: cell-based; conditions: COS cells, COX-2; read-out: Inhibition of COX Enzymes in COS Cell Assays, COX-2 IC50
T2 construct: expressed in transfected cells; host or cells: Cos-A2 cells, stably transfected
T2 sequence (P35354 18-604): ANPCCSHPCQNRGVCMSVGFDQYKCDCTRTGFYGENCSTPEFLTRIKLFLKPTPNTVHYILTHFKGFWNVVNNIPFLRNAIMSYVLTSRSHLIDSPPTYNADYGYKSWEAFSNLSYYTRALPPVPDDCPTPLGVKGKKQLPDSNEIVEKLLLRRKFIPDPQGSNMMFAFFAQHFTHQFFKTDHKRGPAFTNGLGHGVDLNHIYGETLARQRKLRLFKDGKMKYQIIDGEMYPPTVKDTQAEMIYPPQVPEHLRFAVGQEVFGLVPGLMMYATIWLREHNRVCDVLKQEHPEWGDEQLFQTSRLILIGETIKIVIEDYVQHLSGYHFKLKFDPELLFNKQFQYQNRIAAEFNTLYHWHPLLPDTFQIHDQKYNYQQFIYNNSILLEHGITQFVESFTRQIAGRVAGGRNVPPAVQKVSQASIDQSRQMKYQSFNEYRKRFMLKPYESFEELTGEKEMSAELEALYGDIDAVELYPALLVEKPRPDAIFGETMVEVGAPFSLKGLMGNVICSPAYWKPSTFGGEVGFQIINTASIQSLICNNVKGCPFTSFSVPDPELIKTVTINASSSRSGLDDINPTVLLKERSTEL
Procedure: as §3, §2

[5] = biological target: T3, Human cyclooxygenase 2 (COX-2) (Homo sapiens, UniProt P35354); experiment: COX-2 inhibition, microsomal assay; conditions: 20 min, read-out: % Inhibition of COX Enzymes in Microsomal Assays, COX-2
T3 sequence (P35354 18-604): T2 sequence (P35354 18-604)
Procedure: as §1, §2

[6] = system: COX-2; conditions: in words, background; cited from earlier work
[7] = COS, read-out: Inhibition of COX Enzymes in COS Cell Assays, COX-1 % inhibition

Human cyclooxygenase 1 (COX-1), sequence (P23219 24-599): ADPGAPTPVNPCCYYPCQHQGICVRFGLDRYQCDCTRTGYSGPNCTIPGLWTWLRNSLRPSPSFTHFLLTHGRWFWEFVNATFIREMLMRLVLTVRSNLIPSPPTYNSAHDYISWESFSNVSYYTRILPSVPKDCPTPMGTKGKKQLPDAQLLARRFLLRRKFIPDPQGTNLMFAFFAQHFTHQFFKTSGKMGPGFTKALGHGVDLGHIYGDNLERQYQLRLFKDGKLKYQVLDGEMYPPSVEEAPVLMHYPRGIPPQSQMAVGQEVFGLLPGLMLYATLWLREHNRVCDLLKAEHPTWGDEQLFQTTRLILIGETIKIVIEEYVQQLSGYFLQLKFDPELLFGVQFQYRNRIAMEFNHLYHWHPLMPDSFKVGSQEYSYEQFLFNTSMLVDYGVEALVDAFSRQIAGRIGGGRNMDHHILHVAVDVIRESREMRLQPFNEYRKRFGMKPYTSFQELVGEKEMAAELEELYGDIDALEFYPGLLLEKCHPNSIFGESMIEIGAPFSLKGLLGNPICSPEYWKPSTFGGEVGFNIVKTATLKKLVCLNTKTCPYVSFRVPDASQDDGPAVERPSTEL
T1 sequence (P23219 24-599): as above

Compound `CC(C)S(=O)(=O)C1C(=O)N(Cc2ccccc2)C(=O)c2ccc(Cl)cc21` (stereo not drawn) [Example 1, 2-Benzyl-6-chloro-4-(1-methylethyl)sulfonyl-4H-isoquinolin-1,3-dione] has an inhibition at 0.1 µg/mL [1] of 10%, an inhibition at 1 µg/mL [1] of 34% and an inhibition at 10 µg/mL [1] of 57%. For the same compound, the “Effect of Compounds in Carrageenen Paw Edema in Rats, % Inhibition” value (from here on “Effect of Compounds … % Inhibition”) [2] was 42.5% and the IC50 ([3]; COS cells, COX-1, read-out: Inhibition of COX Enzymes in COS Cell Assays, COX-1 IC50) was 1400 nM.

Compound `CC(C)S(=O)(=O)C1C(=O)N(Cc2ccc(F)c(F)c2)C(=O)c2ccc(Cl)cc21` (stereo not drawn) [Example 10] has an inhibition at 0.1 µg/mL [1] of 13%, an inhibition at 1 µg/mL [1] of 40% and an inhibition at 10 µg/mL [1] of 96%. For the same compound, the “Effect of Compounds … % Inhibition” value [2] was 38.6%, the inhibition at 0.1 µM [3, 7] was 20% and the inhibition at 1 µM [3, 7] was 55%. It also gave an inhibition at 10 µM [3, 7] of 88%, an IC50 [4] of 100 nM and an inhibition at 0.1 µg/mL [5] of -3%. For the same compound, the inhibition at 1 µg/mL [5] was 100% and the inhibition at 10 µg/mL [5] was 100%.

In the case of `Cc1cnc(NC(=O)C2=C(O)c3ccccc3S(=O)(=O)N2C)s1` [Meloxicam, reference compound], the “Effect of Compounds … % Inhibition” value [2] is listed as 56% and the “selective inhibition of the COX-2 isoform” value [6] is listed as “more or less selectively inhibit the COX-2 isoform”.
